Drawing on patent US11473064B2, “Hybrid alphavirus-SARS-CoV-2 particle and methodology of making and using same” (GEORGE MASON RESEARCH FOUNDATION, INC., priority 2020, dated 2022), this text covers IC50 for one compound.

In this test the test system is Ha-CoV-2(Luc). Put plainly: microbe, parasite or virus in culture. In kind it is cell-based, SARS-CoV-2. Conditions: Severe acute respiratory syndrome coronavirus 2, HEK-293T, read-out: IC50 (inhibition of Ha-CoV-2(Luc) infection).

A word on the IC50: it is the point on the concentration scale where inhibition reaches its midpoint. Consider `CCOC(=O)c1c(CSc2ccccc2)n(C)c2cc(Br)c(O)c(CN(C)C)c12` [Arbidol, Arbidol (Umifenovir)], for which the IC50 came out at 16 µM.
